Assay results published in patent publication US20050215544A1, “Methods of treating HIV infection” (priority 2004, published 2005).

Columns and labels:
[1] = tested on: HIV-1 LAI; assay: microbe, parasite or virus in culture
Procedure: (§1) Virus and cell lines. The T-cell lines, MT-2 and PM-1 were obtained through the AIDS Research and Reference Reagent Program, NIAID, and were contributed by Dr. D. Richman and Dr. R. Gallo, respectively. Both cell lines were cultured in RPMI 1640 medium supplemented with 10% fetal bovine serum, 2 mM L-glutamine and sub-cultured twice a week. The LAI strain of HIV-1 was obtained from the Fred Hutchinson Cancer Research Center, and the Bal strain was from NIH. Both virus stocks were amplified and titered in MT-2 cells (LAI) and PM-1 cells (Bal) using a virus infectivity assay.
(§2) Drug Susceptibility and Cytotoxicity Assays. For drug susceptibility assays, MT-2 cells were infected with HIV-1 LAI (or PM-1 cells with HIV-1 Bal) at an MOI of 0.005, and seeded into 96-well microtiter plates ([…] cells/ml) containing serial dilutions of test compounds. […] Each drug ratio consisted of an array of 3-fold serial dilutions, and was performed in quadruplicate. The plates were incubated at 37° C./5% CO2. The MT-2 cells infected with HIV-1 LAI were incubated for 5 days. On day-five post-infection, 20 μl from each well was harvested and quantitated by a reverse transcriptase (RT) assay, or in samples involving non-nucleoside RT inhibitors, an MTS assay. The PM-1 cells infected with HIV-1 Bal and used for studying the combinations with CCR5 inhibitors were incubated for six days. On day-six post-infection, 20 μl from each well was harvested, 20- and 50-fold diluted and quantitated by p24 assay. Cytotoxicity assays were performed using uninfected cells, exposed to the same drug combinations, and incubated for six days. Cell viability was determined by an MTS assay. The CC50 values were calculated by using the exponential form of the median effect equation as mentioned below for calculation of EC50.
(§3) In this equation, Fa stands for “fraction affected,” and represents the fraction of the viral load that has been inactivated. […] ED50 is drug concentration that is expected to reduce the amount of virus by 50%, and m is a parameter that reflects the slope of the concentration-response curve.
In carrying out the combination experiments below, the EC50 for Compound 1 and each comparator compound was determined during the course of each study, and used in the subsequent data analysis.

[2] = tested on: HIV-1 LAI; assay: Two-drug combination antiviral assay with Compound 1 (combination indices, Chou and Rideout); assay type: cell-based; conditions: combination with Compound 1; for Combination Indices at 50% HIV Inhibition (Confidence Interval) / Combination Indices at 75% HIV Inhibition (Confidence Interval) / Combination Indices at 90% HIV Inhibition (Confidence Interval): 95% CI in parenthesis; for Overall Result of two-drug combination: all ratios and inhibition levels
Procedure: as §1, §2
Analysis of Drug Combination Effects. For determination of CI values, drugs were diluted in a fixed ratio and multiple ratios were analyzed. The drug serial dilutions spanned a range of concentrations near the EC50 value of each compound, so that equivalent antiviral activities could be compared. Concentration-response curves were estimated for each individual drug and every combination using the median-effect equation. The equation was fit using a nonlinear regression routine (Proc Nlin) in PC SAS version 8.01 (SAS Institute Inc., SAS Version 8.01, Cary, NC: SAS Institute Inc., 1990).
as §3
To assess antiviral effects of different drug combination treatments, combination indices (CIs) were calculated according to Chou and Rideout. The combination index was computed as CI=[D]1/[Dm]1+[D]2/[Dm]2
In this equation [Dm]1 and [Dm]2 are the concentrations of drugs that would individually produce a specific level of effect, while [D]1 and [D]2 are the concentrations of drugs in combination that would produce the same level of effect.
Theoretically, additivity is implied if the CI is equal to one, synergy if the CI is less than one, and antagonism if the CI is greater than one. […] At best, we can construct a range that contains the likely values for the CI, given the noise in the data. In this report, these ranges are reported in parentheses next to each point estimate of the CI. […] If the range fell entirely above 1.0, we would infer antagonistic behavior. If the range were to include 1.0, we would infer additivity.

[3] = Human immunodeficiency virus 1, MT2, 120 h
[4] = EC50 ratio 1:1 (Compound 1 to comparator)
[5] = EC50 ratio 1:2.5 (Compound 1 to comparator)
[6] = EC50 ratio 2.5:1 (Compound 1 to comparator)

EC50 [1, 3] [nM] | EC50 ([1]; MT-2 cells infected with HIV-1 LAI, MOI 0.005, 5 days, single drug) [nM] | SMILES | Combination Indices at 50% HIV Inhibition (Confidence Interval) [2, 4] | Combination Indices at 75% HIV Inhibition (Confidence Interval) [2, 4] | Combination Indices at 90% HIV Inhibition (Confidence Interval) [2, 4] | Combination Indices at 50% HIV Inhibition (Confidence Interval) [2, 5] | Combination Indices at 75% HIV Inhibition (Confidence Interval) [2, 5] | Combination Indices at 90% HIV Inhibition (Confidence Interval) [2, 5] | Combination Indices at 50% HIV Inhibition (Confidence Interval) [2, 6] | Combination Indices at 75% HIV Inhibition (Confidence Interval) [2, 6] | Combination Indices at 90% HIV Inhibition (Confidence Interval) [2, 6] | Overall Result of two-drug combination [2] | Overall Result of two-drug combination ([2]; listed as efavirenz)
 | 13 | C[C@H](Cn1cnc2c(N)ncnc21)OCP(=O)(O)O [Tenofovir] | 0.11 (0.09, 0.13) | 0.22 (0.17, 0.27) | 0.54 (0.31, 0.76) | 0.13 (0.11, 0.15) | 0.23 (0.18, 0.28) | 0.50 (0.30, 0.70) | 0.16 (0.13, 0.19) | 0.22 (0.17, 0.28) | 0.38 (0.22, 0.54) | Synergistic | 
0.6 |  | O=C1Nc2ccc(Cl)cc2[C@@](C#CC2CC2)(C(F)(F)F)O1 [Efavirenz] | 0.93 (0.74, 1.12) | 0.70 (0.51, 0.90) | 0.57 (0.32, 0.82) | 0.71 (0.58, 0.85) | 0.85 (0.62, 1.08) | 1.10 (0.64, 1.56) | 0.82 (0.62, 1.02) | 0.83 (0.55, 1.12) | 0.89 (0.41, 1.36) | Additive- | additive to synergistic
35 |  | CC(C)CN(C[C@@H](O)[C@H](Cc1ccccc1)NC(=O)O[C@H]1CCOC1)S(=O)(=O)c1ccc(N)cc1 [Amprenavir] | 0.47 (0.33, 0.62) | 0.76 (0.44, 1.09) | 1.37 (6.46, 2.28) | 0.63 (0.45, 0.81) | 0.72 (0.44, 1.01) | 0.99 (0.38, 1.60) | 0.20 (0.12, 0.28) | 0.60 (0.28, 0.92) | 1.87 (0.24, 3.50) | Additive- | 
6 |  | Cc1c(O)cccc1C(=O)N[C@@H](CSc1ccccc1)[C@H](O)CN1C[C@H]2CCCC[C@H]2C[C@H]1C(=O)NC(C)(C)C [Nelfinavir] | 0.38 (6.31, 0.46) | 0.56 (0.47, 0.72) | 0.83 (0.47, 1.18) | 0.56 (0.46, 0.65) | 0.89 (0.68, 1.10) | 1.43 (0.89, 1.97) | 0.17 (0.13, 0.21) | 0.40 (0.29, 0.52) | 0.95 (0.49, 1.42) | Additive- | 
5 |  | Cc1cccc(C)c1OCC(=O)N[C@@H](Cc1ccccc1)[C@@H](O)C[C@H](Cc1ccccc1)NC(=O)[C@H](C(C)C)N1CCCNC1=O [Lopinavir] | 0.68 (0.49, 0.87) | 0.80 (0.48, 1.11) | 0.95 (0.36, 1.55) | 0.74 (0.57, 0.92) | 0.56 (0.37, 0.74) | 0.42 (0.21, 0.64) | 0.65 (0.44, 0.86) | 0.77 (0.43, 1.11) | 0.92 (0.28, 1.57) | Additive- | 

The remaining lines, values behind:

SMILES | EC50 [1, 3] [nM] | EC50 ([1]; MT-2 cells infected with HIV-1 LAI, MOI 0.005, 5 days, single drug) [nM] | Combination Indices at 50% HIV Inhibition (Confidence Interval) [2, 4] | Combination Indices at 75% HIV Inhibition (Confidence Interval) [2, 4] | Combination Indices at 90% HIV Inhibition (Confidence Interval) [2, 4] | Combination Indices at 50% HIV Inhibition (Confidence Interval) [2, 5] | Combination Indices at 75% HIV Inhibition (Confidence Interval) [2, 5] | Combination Indices at 90% HIV Inhibition (Confidence Interval) [2, 5] | Combination Indices at 50% HIV Inhibition (Confidence Interval) [2, 6] | Combination Indices at 75% HIV Inhibition (Confidence Interval) [2, 6] | Combination Indices at 90% HIV Inhibition (Confidence Interval) [2, 6] | Overall Result of two-drug combination [2] | Overall Result of two-drug combination ([2]; listed as efavirenz)
Nc1nc(=O)n([C@@H]2CS[C@H](CO)O2)cc1F [Emtricitabine] | 36 |  | 0.56 (0.49, 0.62) | 0.39 (0.34, 0.45) | 0.28 (0.22, 0.33) | 0.45 (0.38, 0.51) | 0.62 (0.50, 0.74) | 0.86 (0.59, 1.14) | 0.22 (0.20, 0.24) | 0.32 (0.28, 0.37) | 0.48 (0.38, 0.58) | Synergistic | 
CC(C)(C)NC(=O)[C@@H]1C[C@@H]2CCCC[C@@H]2CN1C[C@@H](O)[C@H](Cc1ccccc1)NC(=O)[C@H](CC(N)=O)NC(=O)c1ccc2ccccc2n1 [Saquinavir] | 4 |  | 0.50 (0.40, 0.61) | 0.92 (0.64, 1.19) | 1.71 (0.90, 2.51) | 0.24 (0.21, 0.26) | 0.32 (0.27, 0.36) | 0.43 (0.33, 0.52) | 0.14 (0.12, 0.16) | 0.31 (0.25, 0.37) | 0.68 (0.45, 0.92) | Additive- | 
CC(C)(C)NC(=O)[C@@H]1CN(Cc2cccnc2)CCN1C[C@@H](O)C[C@@H](Cc1ccccc1)C(=O)N[C@H]1c2ccccc2C[C@H]1O [Indinavir] | 1 |  | 0.73 (0.58, 0.88) | 0.75 (0.54, 0.97) | 0.77 (0.42, 1.12) | 0.42 (0.22, 0.63) | 0.57 (0.20, 0.95) | 0.78 (0.00, 1.64) | 0.56 (0.43, 0.69) | 0.67 (0.45, 0.89) | 0.81 (0.38, 1.23) | Moderate- | 
Cc1cn([C@H]2C=C[C@@H](CO)O2)c(=O)[nH]c1=O [Stavudine] | 318 |  | 0.25 (0.18, 0.33) | 0.53 (0.32, 0.74) | 1.12 (0.38, 1.86) | 0.14 (0.10, 0.19) | 0.22 (0.13, 0.32) | 0.36 (0.10, 0.62) | 0.28 (0.24, 0.32) | 0.39 (0.32, 0.47) | 0.55 (0.38, 0.73) | Moderate- | 
